According to patent US9688687B2, “Polymorphic forms of icotinib phosphate and uses thereof” (BETTA PHARMACEUTICALS CO., LTD., priority 2013, dated 2017):
Structures can show the parent of a compound that is named as a salt. Where two headings read alike, the source gives them in different places.

Test: Pharmacokinetic study of Icotinib hydrochloride and Polymorph Form II of Icotinib phosphate, oral suspension in fasted SD rats
Assay type: in vivo
Details: dose equivalent to 50 mg/kg Icotinib, plasma; for AUC(0-t): read-out: AUC(0-24)
From the text: Drugs and reagents: The Icotinib hydrochloride used in this study was of Crystalline Form I disclosed by the WO2010/003313. Polymorph Form II of Icotinib phosphate and Icotinib hydrochloride were ground to fine particles. The material content (purity) was not less than 99.0%. Sodium carboxymethyl cellulose was medical supply graded.
Experimental animals: SD rats were divided to an Icotinib hydrochloride group and a Polymorph Form II group, with both groups consisting of half males and half females.
Pharmaceutical preparation: the amount of each compound was weighed and then sodium carboxymethyl cellulose was added to result in the test compound's concentration of 0.5%. The solid mixture was then added to prepare a suspension thereof at a final concentration of […] in water.
Administration and sample collection: each suspension was administered orally to fasted SD rats at a dose equivalent to 50 mg/kg Icotinib in a dose volume of 5 ml/kg. 0.4 ml of blood was collected in EDTA-K pre anticoagulant tubes at time intervals of 0.5, 1, 1.5, 2, 4, 6, 8 and 24 hrs after the administration of the test compound, centrifuged at 3000 rpm for 10 minutes, and 120 μL plasma was collected and kept in cold storage.
Samples were analyzed by high performance liquid chromatography. The chromatographic conditions utilized C18-silane bonded silica as stationary phase, 0.02 mol/L of sodium dihydrogen phosphate in […] (40:60, using sodium hydroxide solution to adjust pH to 5.0) as the mobile phase and a detection wavelength of 334 nm. PK profile comparison of Crystalline Form I of Icotinib Hydrochloride and Polymorph Form II of Icotinib phosphate was summarized in Table 1 and FIG. 5.

[1] = male, SD, rat, po, 50 mg/kg, male SD rats
[2] = female, SD, rat, po, 50 mg/kg, female SD rats

| Structure (SMILES) | AUC(0-24) (female SD rats) | AUC(0-∞) (female SD rats) | Cmax (female SD rats) | T1/2 (female SD rats) | Tmax (female SD rats) | T1/2 (male SD rats) | Tmax (male SD rats) | AUC(0-inf) [1] | AUC(0-t) [1] | T1/2 (female SD rats, hydrochloride) | AUC(0-inf) [2] | AUC(0-t) [2] | Cmax (female, SD, rat, po, 50 mg/kg, female SD rats, read-out: Cmax) | Tmax (female, SD, rat, po, 50 mg/kg, female SD rats, read-out: Tmax) | AUC(0-24) (male SD rats, hydrochloride) | AUC(0-∞) (male SD rats, hydrochloride) | half-life [1] | Cmax (male, SD, rat, po, 50 mg/kg, male SD rats, read-out: Cmax) | Tmax (male, SD, rat, po, 50 mg/kg, male SD rats, read-out: Tmax) |
| --- | --- | --- | --- | --- | --- | --- | --- | --- | --- | --- | --- | --- | --- | --- | --- | --- | --- | --- | --- |
| C#Cc1cccc(Nc2ncnc3cc4c(cc23)OCCOCCOCCO4)c1 [Icotinib Phosphate polymorph form II, Icotinib phosphate] | 155200 ± 20200 ng·h/mL | 156700 ± 17800 ng·h/mL | 13100 ± 2400 ng/mL | 2.9 ± 0.4 h | 4.7 ± 1.2 h | 2.6 ± 0.2 h | 2.3 ± 1.5 h | 28700 ± 8100 ng·h/mL | 28600 ± 8100 ng·h/mL |  |  |  |  |  |  |  |  |  |  |
| C#Cc1cccc(Nc2ncnc3cc4c(cc23)OCCOCCOCCO4)c1 [Icotinib hydrochloride] |  |  |  |  |  |  |  |  |  | 6.2 ± 3.5 h | 124000 ± 13000 ng·h/mL | 113000 ± 24000 ng·h/mL | 10200 ± 1900 ng/mL | 3 ± 1.7 h | 19000 ± 7100 ng·h/mL | 19100 ± 7200 ng·h/mL | 2.9 ± 0.4 h | 3400 ± 400 ng/mL | 2.3 ± 3.2 h |
